Results taken from patent publication US8354414B2, “Substituted bicyclic pyrimidines” (Cephalon, Inc, priority 2006, dated 2013).
Where two headings read alike, the source gives them in different places.

Assays:
[1] = target: T1, His6-GSK-3β (Homo sapiens, UniProt P49841); assay: Inhibition of His6-GSK-3β kinase activity (ELISA-based format, time-resolved fluorescence readout); assay type: biochemical; conditions: read-out: GSK3β IC50
T1 construct: made in house; host or cells: Sf21 insect cells (baculovirus)
T1 sequence (P49841 2-419): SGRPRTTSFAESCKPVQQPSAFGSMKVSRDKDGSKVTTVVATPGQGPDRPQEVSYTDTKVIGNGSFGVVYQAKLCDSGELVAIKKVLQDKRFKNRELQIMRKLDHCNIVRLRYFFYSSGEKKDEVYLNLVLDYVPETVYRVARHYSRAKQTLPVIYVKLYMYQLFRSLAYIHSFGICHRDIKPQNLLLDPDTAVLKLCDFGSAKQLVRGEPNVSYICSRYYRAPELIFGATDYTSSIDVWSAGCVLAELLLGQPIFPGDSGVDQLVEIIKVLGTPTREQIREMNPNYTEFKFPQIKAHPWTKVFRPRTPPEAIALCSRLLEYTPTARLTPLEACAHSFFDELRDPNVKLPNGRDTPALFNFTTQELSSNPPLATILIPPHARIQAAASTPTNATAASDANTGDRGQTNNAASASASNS
Summary of the method: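 Plate-bound recombinant GST-Rb substrate was phosphorylated for 30 min at 37° C by baculovirus-expressed His6-GSK-3β (200 ng/ml) at 20 μM ATP, 10 mM MgCl2, 2.5% DMSO. Europium time-resolved fluorescence of anti-phospho-Ser780 Rb signal gave inhibition, fitted to IC50.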

[2] = target: T2, CDK5/GST-p25 (Homo sapiens, UniProt Q00535); assay: Inhibition of CDK5/GST-p25 kinase activity (ELISA with time-resolved fluorescence readout); assay type: biochemical
T2 construct: The final construct, encoding for full-length human CDK5; made in house; host or cells: Sf21 insect cells (baculovirus co-infection)
T2 sequence (Q00535 whole entry): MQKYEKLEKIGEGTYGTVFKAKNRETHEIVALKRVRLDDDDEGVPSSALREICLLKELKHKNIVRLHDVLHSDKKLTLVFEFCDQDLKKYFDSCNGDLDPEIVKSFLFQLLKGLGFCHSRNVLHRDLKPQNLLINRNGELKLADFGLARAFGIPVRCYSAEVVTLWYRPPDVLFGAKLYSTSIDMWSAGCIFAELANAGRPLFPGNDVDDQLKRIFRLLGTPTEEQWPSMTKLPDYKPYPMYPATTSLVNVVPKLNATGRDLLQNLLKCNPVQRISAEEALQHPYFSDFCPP
T2 sequence (Q15078 108-307 partner limits assumed): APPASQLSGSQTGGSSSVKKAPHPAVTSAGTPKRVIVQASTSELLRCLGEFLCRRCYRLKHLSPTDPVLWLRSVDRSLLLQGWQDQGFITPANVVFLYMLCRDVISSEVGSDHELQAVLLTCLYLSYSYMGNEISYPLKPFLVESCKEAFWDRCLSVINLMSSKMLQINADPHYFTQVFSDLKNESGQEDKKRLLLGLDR
Summary of the method: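 The substrate, GST-Rb(773-928), was immobilised on plates and phosphorylated for 20 min at 37 °C by 2 ng/ml CDK5/GST-p25 in HEPES pH 7.2 with 10 µM ATP and 10 mM MgCl2. Both proteins were human and co-expressed in insect cells. Ser-780 phosphorylation was read by europium time-resolved fluorescence and converted to IC50.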

Row | melting point | IC50 ([1]; numeric bounds) | IC50 ([2]; class symbols) | IC50 ([1]; class symbols) | inhibition at 10 µM [2] | IC50 ([2]; numeric bounds) | Compound
1 | 230 to 233 °C | > 3000 nM | > 10000 nM | – | – | – | O=C1Nc2cc(F)ccc2C1c1ncnc2c1cnn2C1CCCC1 (stereo not drawn) [Example 66, 3-(1-Cyclopentyl-1H-pyrazolo[3,4-d]pyrimidin-4-yl)-6-fluoro-1,3-dihydro-indol-2-one]
2 | > 350 °C | – | < 300 nM | 300 to 3000 nM | – | – | Cn1cc2c(C3C(=O)Nc4ccc(C#N)cc43)ncnc2n1 (stereo not drawn) [Example 84, 3-(2-Methyl-2H-pyrazolo [3,4-d]pyrimidin-4-yl)-2-oxo-2,3-dihydro-1H-indole-5-carbonitrile]
3 | 261 to 264.5 °C | – | < 300 nM | < 300 nM | – | – | CC(C)Cn1cc2c(C3C(=O)Nc4ccc(Br)cc43)nc(NCCN(C)C)nc2n1 (stereo not drawn) [Example 268, 5-Bromo-3-[6-(2-dimethylamino-ethylamino)-2-isobutyl-2H-pyrazolo[3,4-d]pyrimidin-4-yl]-1,3-dihydro-indol-2-one]
4 | > 300 °C | – | – | < 300 nM | 56% | – | C[C@H](O)CNc1nc(C2C(=O)Nc3ccc(Cl)cc32)c2cn(C3CCCC3)nc2n1 (stereo partly drawn) [Example 374]
5 | 302 to 305 °C | – | < 300 nM | < 300 nM | – | – | CCCn1cc2c(C3C(=O)Nc4ccc(C#N)cc43)nc(NCCc3cccnc3)nc2n1 (stereo not drawn) [Example 185, 2-Oxo-3-[2-propyl-6-(2-pyridin-3-yl-ethylamino)-2H-pyrazolo [3,4-d]pyrimidin-4-yl]-2,3-dihydro-1H-indole-5-carbonitrile]
6 | 249 to 259 °C | – | < 300 nM | < 300 nM | – | – | COCCNc1nc(C2C(=O)Nc3ccc(Cl)cc32)c2cn(C3CCCC3)nc2n1 (stereo not drawn) [Example 277, 5-Chloro-3-[2-cyclopentyl-6-(2-methyoxy-ethylamino)-2H-pyrazolo[3,4-d]pyrimidin-4-yl]-1,3-dihydro-indol-2-one]
7 | > 300 °C | – | < 300 nM | < 300 nM | – | – | CCOCCn1cc2c(C3C(=O)Nc4ccc(Cl)cc43)nc(NC[C@@H](C)O)nc2n1 (stereo partly drawn) [Example 218, 5-Chloro-3-[2-(2-ethoxy-ethyl)-6-((R)-2-hydroxy-propylamino)-2H-pyrazolo[3,4-d]pyrimidin-4-yl]-1,3-dihydro-indol-2-one]
8 | > 300 °C | – | > 10000 nM | > 10000 nM | – | – | O=C1Nc2ccc(C(F)(F)F)cc2C1c1ncnc2c1cnn2C1CCCC1 (stereo not drawn) [Example 56, 3-(1-Cyclopentyl-1H-pyrazolo [3,4-d]pyrimidine-4-yl)-5-trifluoromethyl-1,3-dihydro-indol-2-one]
9 | 278 to 280 °C | – | > 10000 nM | < 300 nM | – | – | O=C1Nc2ccc(C(F)(F)F)cc2C1c1nc(NCCc2cccnc2)nc2nn(C3CCCC3)cc12 (stereo not drawn) [Example 160, 3-[2-cyclopentyl-6-(2-pyridin-3-yl-ethylamino)-2H-pyrazolo[3,4-d]pyrimidin-4-yl]-5-trifluoromethyl-1,3-dihydro-indol-2-one]
10 | 297 to 298 °C | – | < 300 nM | < 300 nM | – | – | COCCn1cc2c(C3C(=O)Nc4ccc(Br)cc43)nc(NCCCN(C)C)nc2n1 (stereo not drawn) [Example 233, 5-Bromo-3-[6-(3-dimethylamino-propylamino)-2-(2-methoxy-ethyl)-2H-pyrazolo [3,4-d]pyrimidin-4-yl]-1,3-dihydro-indol-2-one]
11 | 209 to 226 °C | – | 300 to 3000 nM | < 300 nM | – | – | CC(=O)NCCNc1nc(C2C(=O)Nc3ccc(Cl)cc32)c2cn(C3CCCC3)nc2n1 (stereo not drawn) [Example 276, N-{2-[4(5-Chloro-2-oxo-2,3-dihydro-1H-indol-3-yl)-2-cyclopentyl-2H-pyrazolo[3,4-d]pyrimidin-6-ylamino]-ethyl}-acetamide]
12 | 247 to 250 °C | – | 300 to 3000 nM | < 300 nM | – | – | CCCn1cc2c(C3C(=O)Nc4ccc(Br)cc43)nc(NC[C@@H](C)N)nc2n1 (stereo partly drawn) [Example 369, 3-[6-(2-(R)-Amino-propylamino)-2-propyl-2H-pyrazolo[3,4-d]pyrimidin-4-yl]-5-bromo-1,3-dihydro-indol-2-one]
13 | > 350 °C | > 3000 nM | < 300 nM | – | – | – | Cn1ncc2c(C3C(=O)Nc4ccc(Br)cc43)ncnc21 (stereo not drawn) [Example 85, 5-Bromo-3-(1-methyl-1H-pyrazolo[3,4-d]pyrimidin-4-yl)-1,3-dihydro-indol-2-one]
14 | > 300 °C | – | < 300 nM | 300 to 3000 nM | – | – | C=CCn1cc2c(C3C(=O)Nc4ccc(C#N)cc43)ncnc2n1 (stereo not drawn) [Example 76, 3-(2-Allyl-2H-pyrazolo[3,4-d]pyrimidin-4-yl)-2-oxo-2,3-dihydro-1H-indole-5-carbonitrile]
15 | > 300 °C | > 1000 nM | – | – | 63% | – | C=CCNc1nc(C2C(=O)Nc3ccccc32)c2cn(C3CCCC3)nc2n1 (stereo not drawn) [Example 243, 3-(6-Allylamino-2-cyclopentyl-2H-pyrazolo[3,4-d]pyrimidin-4-yl)-1,3-dihydro-indol-2-one]
16 | > 300 °C | > 3000 nM | > 10000 nM | – | – | – | O=C1Nc2ccc(C(F)(F)F)cc2C1c1nc(Cl)nc2nn(C3CCCC3)cc12 (stereo not drawn) [Example 153, 3-(6-Chloro-2-cyclopentyl-2H-pyrazolo [3,4-d]pyrimidin-4-yl)-5-trifluoromethyl-1,3-dihydro-indol-2-one]
17 | 201 to 204 °C | – | – | 300 to 3000 nM | – | > 3000 nM | CNCCNc1nc(C2C(=O)Nc3ccc(Br)cc32)c2cn(C3CCCC3)nc2n1.Cl (stereo not drawn) [Example 378, 5-Bromo-3-[2-cyclopentyl-6-(2-methylamino-ethylamino)-2H-pyrazolo [3,4-d]pyrimidin-4-yl]-1,3-dihydro-indol-2-one hydrochloride salt]
18 | 299 to 303 °C | – | < 300 nM | < 300 nM | – | – | CCCn1cc2c(C3C(=O)Nc4ccc(Br)cc43)nc(NCCN3CCOCC3)nc2n1 (stereo not drawn) [Example 202, 5-Bromo-3-[6-(2-morpholin-4-yl-ethylamino)-2-propyl-2H-pyrazolo [3,4-d]pyrimidin-4-yl]-1,3-dihydro-indol-2-one]
19 | 299 to 302 °C | – | < 300 nM | < 300 nM | – | – | CCCn1cc2c(C3C(=O)Nc4ccc(C#N)cc43)nc(NCc3ccncc3)nc2n1 (stereo not drawn) [Example 186, 2-Oxo-3-{2-propyl-6-[(pyridine-4-ylmethyl)-amino]-2H-pyrazolo [3,4-d]pyrimidin-4-yl}-2,3-dihydro-1H-indole-5-carbonitrile]
20 | 285 to 290 °C | – | < 300 nM | < 300 nM | – | – | O=C1Nc2ccc(Br)cc2C1c1ncnc2nn(C3CCCCC3)cc12 (stereo not drawn) [Example 46, 5-Bromo-3-(2-cyclohexyl-2H-pyrazolo[3,4-d]pyrimidin-4-yl)-1,3-dihydro-indol-2-one]
21 | 322 to 326 °C | – | < 300 nM | < 300 nM | – | – | CCCn1cc2c(C3C(=O)Nc4ccc(Br)cc43)nc(NC[C@H](C)O)nc2n1 (stereo partly drawn) [Example 194, 5-Bromo-3-[6-((S)-2-hydroxy-propylamino)-2-propyl-2H-pyrazolo[3,4-d]pyrimidin-4-yl]-1,3-dihydro-indol-2-one]
22 | > 300 °C | – | – | > 10000 nM | – | > 3000 nM | N#Cc1ccc2c(c1)NC(=O)C2c1ncnc2c1cnn2C1CCCCC1 (stereo not drawn) [Example 69, 3-(1-Cyclohexyl-1H-pyrazolo[3,4-d]pyrimidin-4-yl)-2-oxo-2,3-dihydro-1H-indole-6-carbonitrile]
23 | 252 to 256 °C | – | < 300 nM | < 300 nM | – | – | [N-]=[N+]=NCCCn1cc2c(C3C(=O)Nc4ccc(Br)cc43)ncnc2n1 (stereo not drawn) [Example 89, 3-[2-(3-azido-propyl)-2H-pyrazolo[3,4-d]pyrimidin-4-yl]-5-bromo-1,3-dihydro-indol-2-one]
24 | 228 to 231 °C | > 3000 nM | > 10000 nM | – | – | – | O=C1Nc2ccccc2C1c1ncnc2c1cnn2C1CCCC1 (stereo not drawn) [Example 62, 3-(1Cyclopentyl-1H-pyrazolo[3,4-d]pyrimidin-4-yl)-1,3-dihydro-indol-2-one]
25 | 319 to 322 °C (dec.) | – | < 300 nM | < 300 nM | – | – | O=C1Nc2ccc(Br)cc2C1c1ncnc2nn(C3CCCC3)cc12 (stereo not drawn) [Example 31, 5-Bromo-3-(2-Cyclopentyl-2H-pyrazolo[3,4-d]pyrimidin-4-yl)-2-oxo-1,3-dihydro-indol-2-one]
26 | > 300 °C | – | – | < 300 nM | 62% | – | C[C@@H](O)CNc1nc(C2C(=O)Nc3ccc(Cl)cc32)c2cn(C3CCCC3)nc2n1 (stereo partly drawn) [Example 375]
27 | 198 to 200 °C | – | – | < 300 nM | – | > 3000 nM | CN(C)CCCNc1nc(C2C(=O)Nc3ccc(Br)cc32)c2cn(C3CCCC3)nc2n1 (stereo not drawn) [Example 371, 5-Bromo-3-[2-cyclopentyl-6-(3-dimethylamino-propylamino)-2H-pyrazolo [3,4-d]pyrimidin-4-yl]-1,3-dihydro-indol-2-one]
28 | 270 to 273 °C | – | > 10000 nM | > 10000 nM | – | – | O=C1Nc2ccccc2C1c1nc(Cl)nc2nn(C3CCCC3)cc12 (stereo not drawn) [Example 152, 3-(6-Chloro-2-cyclopentyl-2H-pyrazolo[3,4-d]pyrimidin-4-yl)-1,3-dihydro-indol-2-one]
